# Measurements published in patent publication US20080234368A9, “Therapeutic compositions and methods of use” (Trustees of Dartmouth College, priority 1998, published 2008).
# Legend:
# [1] = tested on: MCF-7 breast carcinoma cells; assay: Suppression of thymidine incorporation, dose-response (FIG. 13); format: cell-based, human; settings: MCF-7 with 17-β-estradiol, 72 h; oleanolic acid statement at concentrations of 1 μM or less
# Protocol: Inhibitors of cell proliferation are known to be useful chemopreventive and chemotherapeutic agents. CDDO was tested against a wide variety of cells derived from highly aggressive leukemias and carcinomas, as well as from non-neoplastic tissues. NRP-152 cells were grown as described in Danielpour et al., 1994. MCF-7 cells were grown in phenol red-free RPMI 1640/10% charcoal-stripped FBS with added 17-β-estradiol (10 μM). Triterpenoids were added at the time of plating, and 72 h later ^3H-thymidine (1 μCi/well) was added for the final 2 h of incubation. Incorporation of thymidine was measured after cells were precipitated with TCA (10%), washed, and solubilized. The symbols used in FIG. 13 are CDDO, ▪; TP-82, ◯; and oleanolic acid; ●.
# [2] = tested on: LCDB acute myelogenous leukemia cell line; assay: Monocytic differentiation, α-naphthyl acetate esterase staining; format: cell-based, human
# Protocol: CDDO induces monocytic differentiation in the poorly differentiated LCDB acute myelogenous leukemia cell line, derived from a chemotherapy-resistant patient at the NCI Pediatric Oncology Branch. FIG. 11 illustrates LCDB cells seeded in RPMI 1640/2% FBS, either alone (11A), with 2.5 ng/ml TGF-β1 (11B), with 10^−8 M CDDO (11C), or with both TGF-β1 and CDDO (11D). After 48 h, cytospin slide preparations were made and stained for α-naphthyl acetate esterase activity (kit from Sigma). PC12 cells were cultured for 5 days in gridded dishes in DMEM/10% FBS and 5% horse serum (Smith et al., 1997), either alone (11E), with 100 ng/ml 7S NGF (11F), with 10^−6 M CDDO (11G), or with both NGF and CDDO (11H). […] Methods for quantitative image analysis of size of cells and neurites have been described (De 1a Torre et al., 1997). Control cells in FIG. 11E are approximately 10 μm in diameter. 3T3-L1 cells were grown to confluency in DMEM/5% calf serum, and then treated once with CDDO in DMEM/10% FBS (FIG. 12A) or with CDDO and/or LG100268 in DMEM/10% FBS (FIG. 12B). Every two days thereafter, medium was changed to DMEM/10% FBS, without added CDD0 or LG100268. Cells were harvested on day 8 (FIG. 12A) or day 6 (FIG. 12B), and GPDH was measured in lysates, using a standard assay for consumption of NADH at 340 nm (Wise and Green, 1979).
# COX-2 = assay: TPA-induced COX-2 in 18Co cells; format: cell-based, human
# Excerpt: These cells were selected because of the importance of stromal cell COX-2 in colon carcinogenesis (Oshima et al., 1996). […] Although CDDO effectively blocks the induction of COX-2 by agents such as IFN-γ, LPS, TNF-α, and IL-1, CDDO is ineffective when TPA is used as the inducer of COX-2. This has been seen in 18Co cells, as well as in the human mammary epithelial cell line, 184B5/HER (Zhai et al., 1993).
# [3] = tested on: LPS-induced NO production in rat microglia; assay: LPS-induced NO production in primary microglial cultures; format: cell-based; settings: for inhibition of LPS induction of NO production: LPS 5 ng/ml, 18 h
# Protocol: (§1) For the following examples, stock solutions of CDDO (0.01 M) were made in DMSO and aliquots frozen at −20° C. Serial dilutions were made in DMSO before addition to cell culture media. Primary rat microglia and hippocampal neurons were isolated and cultured as described by Flaris et al., 1993 and Ren and Flanders, 1996.
# (§2) The roles of inflammatory mediators, as well as aberrant programs for cell survival and apoptosis, in the genesis of cancer and Alzheimer's Disease are now undergoing serious investigation (McGeer and McGeer, 1995; Merrill and Benveniste, 1996; Akama et al., 1998). CDDO was tested in this example as a suppressor of de novo formation of iNOS in cultured microglia (the resident macrophages of the brain), as well as its ability to protect cultured hippocampal neurons from cell death induced by β-amyloid. […] Thus, LPS (5 ng/ml) induced iNOS in primary microglial cultures and caused a 27-fold increase in production of NO within 18 h. Concomitant treatment of these cultures with CDDO at either 10^−6 or 10 ^−7 M inhibited this induction by 73% and 52%, respectively. We have also explored the possibility that CDDO can protect cultured hippocampal neurons from cell death induced by the peptide β-amyloid, since NO has been implicated (Akama et al., 1998) in the neurotoxic actions of this peptide which is central to the pathogenesis of Alzheimer's disease (Selkoe, 1997). Hippocampal neurons were isolated and cultured from 16 day rat embryos and then treated with CDDO for 24 h before adding the β-amyloid peptide fragment, amino acids 25-35, at a final concentration of 10 μM. This dosing with β-amyloid alone caused death of more than half of the neurons in the culture within 24 h, as measured by MTT assay.
# rat hippocampal neurons = assay: Protection of hippocampal neurons from β-amyloid induced cell death, MTT assay; format: cell-based
# Protocol: as §1, §2
smiles,measurement,setting,value
"CC1(C)CC[C@]2(C(=O)O)CC[C@]3(C)[C@H](C(=O)C=C4[C@@]5(C)C=C(C#N)C(=O)C(C)(C)[C@@H]5CC[C@]43C)[C@@H]2C1 [Compound 6, 2-cyano-3,12-dioxoolean-1,9-dien-28-oic acid]",suppressing thymidine incorporation,[1],highly active in the nanomolar range
same,"α-naphthyl esterase activity, combination effect",[2]; 10^−8 M CDDO with 2.5 ng/ml TGF-β1,additive effect
same,induction of α-naphthyl esterase activity (monocytic differentiation),"[2]; 10^−8 M CDDO, within 48 h",induced the activity of this enzyme
same,blocking of COX-2 induction with TPA as inducer,COX-2,ineffective
same,inhibition of LPS induction of NO production,[3]; CDDO 10^−6 M,73%
same,inhibition of LPS induction of NO production,[3]; CDDO 10^−7 M,52%
same,activity on LPS-induced NO production compared with dexamethasone (FIG. 2),[3]; rat microglia cells,favorable to that of dexamethasone
same,protection against β-amyloid induced cell death,"rat hippocampal neurons; CDDO 10^−7 M, 24 h pretreatment, β-amyloid 25-35 10 μM, 24 h",totally prevented this cell death
same,protection against β-amyloid induced cell death,"rat hippocampal neurons; CDDO 10^−8 M, 24 h pretreatment, β-amyloid 25-35 10 μM, 24 h",totally prevented this cell death
same,protection against β-amyloid induced cell death,rat hippocampal neurons; doses as low as 10^−10 M,some protective activity
